# According to paper doi:10.1101/2021.10.07.463234v2 (biorxiv, 2021):
# Counter-ions that a name gives are not always drawn.
# Target: SARS-CoV-2 Mac1 (Severe acute respiratory syndrome coronavirus 2, UniProt P0DTD1)
# Assay: biochemical
# Conditions: for inhibition at 100 µM: read-out: %inhibition; for %inhibition: 100 µM, inhibitor
SMILES,inhibition at 100 µM,%inhibition
O=C(O)C1=C(CSc2nnnn2CS(=O)(=O)O)CS[C@@H]2[C@H](NC(=O)[C@H](O)c3ccccc3)C(=O)N12 [Cefonicid sodium],0%,
CCN1CCN(C(=O)N[C@@H](C(=O)N[C@@H]2C(=O)N3C(C(=O)O)=C(CSc4nnnn4C)CS[C@H]23)c2ccc(O)cc2)C(=O)C1=O [Cefoperazone],0%,
NCc1ccccc1CC(=O)N[C@@H]1C(=O)N2C(C(=O)O)=C(CSc3nnnn3CC(=O)O)CS[C@H]12 [Ceforanide],0%,
CO/N=C(\C(=O)N[C@@H]1C(=O)N2C(C(=O)O)=C(Cn3ccc(=N)n3CCO)CS[C@H]12)c1csc(N)n1 [Cefoselis Sulfate],22.8%,
CO/N=C(\C(=O)N[C@@H]1C(=O)N2C(C(=O)O)=C(COC(C)=O)CS[C@H]12)c1csc(N)n1 [Cefotaxime sodium],0.981%,
CC(OC(=O)OC1CCCCC1)OC(=O)C1=C(CSc2nnnn2CCN(C)C)CS[C@@H]2[C@H](NC(=O)Cc3csc(N)n3)C(=O)N12 (some centres unmarked) [Cefotiam Hexetil Hydrochloride],0%,
CN(C)CCn1nnnc1SCC1=C(C(=O)O)N2C(=O)[C@@H](NC(=O)Cc3csc(N)n3)[C@H]2SC1 [Cefotiam hydrochloride],23.3%,
CO[C@@]1(NC(=O)Cc2cccs2)C(=O)N2C(C(=O)O)=C(COC(N)=O)CS[C@@H]21 [Cefoxitin sodium],0%,
CO/N=C(\C(=O)N[C@@H]1C(=O)N2C(C(=O)[O-])=C(C[n+]3ccn4ncccc43)CS[C@H]12)c1nsc(N)n1 [Cefozopran hydrochloride],8.9%,
Cc1cc(O)c(C(=O)N[C@@H](C(=O)N[C@@H]2C(=O)N3C(C(=O)O)=C(CSc4nnnn4C)CS[C@H]23)c2ccc(O)cc2)cn1 [Cefpiramide sodium],0%,
CO/N=C(\C(=O)N[C@@H]1C(=O)N2C(C(=O)[O-])=C(C[n+]3cccc4c3CCC4)CS[C@H]12)c1csc(N)n1 [Cefpirome sulfate],0%,
COCC1=C(C(=O)OC(C)OC(=O)OC(C)C)N2C(=O)[C@@H](NC(=O)/C(=N\OC)c3csc(N)n3)[C@H]2SC1 (some centres unmarked) [Cefpodoxime proxetil],13.2%,
CC1=C(C(=O)O)N2C(=O)[C@@H](NC(=O)[C@H](N)C3=CCC=CC3)[C@H]2SC1 [Cefradine],,0.656%
CC(C)(O/N=C(\C(=O)N[C@@H]1C(=O)N2C(C(=O)[O-])=C(C[n+]3ccccc3)CS[C@H]12)c1csc(N)n1)C(=O)O [Ceftazidime Pentahydrate],0%,
Nc1nc(/C(=C/CC(=O)O)C(=O)N[C@@H]2C(=O)N3C(C(=O)O)=CCS[C@H]23)cs1 [Ceftibuten dihydrate],10.7%,
CO/N=C(\C(=O)N[C@@H]1C(=O)N2C(C(=O)O)=C(CSC(=O)c3ccco3)CS[C@H]12)c1csc(N)n1 [Ceftiofur HCl],,20.8%
CO/N=C(\C(=O)N[C@@H]1C(=O)N2C(C(=O)O)=C(CSC(=O)c3ccco3)CS[C@H]12)c1csc(N)n1 [Ceftiofur],,0%
CO/N=C(\C(=O)N[C@@H]1C(=O)N2C(C(=O)O)=CCS[C@H]12)c1csc(N)n1 [Ceftizoxime],12.3%,
CO/N=C(\C(=O)N[C@@H]1C(=O)N2C(C(=O)O)=C(CSc3nc(=O)c(O)nn3C)CS[C@H]12)c1csc(N)n1 [Ceftriaxone Sodium Trihydrate],,0.1034%
CO/N=C(\C(=O)N[C@@H]1C(=O)N2C(C(=O)O)=C(CSc3nc(=O)c(O)nn3C)CS[C@H]12)c1csc(N)n1 [Ceftriaxone Sodium],,17.28%
CO/N=C(\C(=O)N[C@@H]1C(=O)N2C(C(=O)OC(C)OC(C)=O)=C(COC(N)=O)CS[C@H]12)c1ccco1 (some centres unmarked) [Cefuroxime axetil],0%,
CO/N=C(\C(=O)N[C@@H]1C(=O)N2C(C(=O)O)=C(COC(N)=O)CS[C@H]12)c1ccco1 [Cefuroxime sodium],0%,
Cc1ccc(-c2cc(C(F)(F)F)nn2-c2ccc(S(N)(=O)=O)cc2)cc1 [Celecoxib],10.4%,
CC1=C(C(=O)O)N2C(=O)[C@@H](NC(=O)[C@H](N)c3ccccc3)[C@H]2SC1 [Cephalexin],0%,

SMILES,inhibition at 100 µM,%inhibition
CC(=O)OCC1=C(C(=O)O)N2C(=O)[C@@H](NC(=O)Cc3cccs3)[C@H]2SC1 [Cephalothin],8.54%,
CC(=O)OCC1=C(C(=O)O)N2C(=O)[C@@H](NC(=O)CSc3ccncc3)[C@H]2SC1 [Cephapirin Sodium],0%,
COc1ccc2cc1Oc1ccc(cc1)C[C@H]1c3c(cc4c(c3Oc3cc5c(cc3OC)CCN(C)[C@@H]5C2)OCO4)CCN1C [Cepharanthine],18.2%,
CC1=C(C(=O)O)N2C(=O)[C@@H](NC(=O)[C@H](N)C3=CCC=CC3)[C@H]2SC1 [Cephradine monohydrate],,0%
"CCS(=O)(=O)N1CCN(c2ccc(Nc3ncc(C(N)=O)c(NC4CC4)n3)cc2)CC1 [Cerdulatinib (PRT062070, PRT2070)]",15.9%,
Cc1cc(Nc2ncc(Cl)c(Nc3ccccc3S(=O)(=O)C(C)C)n2)c(OC(C)C)cc1C1CCNCC1 [Ceritinib (LDK378)],0%,
CCCCCCCCCCCCCCCCOc1nc2ccc(C)cc2c(=O)o1 [Cetilistat],8.35%,
O=C(O)COCCN1CCN(C(c2ccccc2)c2ccc(Cl)cc2)CC1 (centres unmarked) [Cetirizine DiHCl],1.2%,
CCCCCCCCCCCCCCCC[N+](C)(C)C [Cetrimonium Bromide (CTAB)],25.1%,
C[C@H](CCC(=O)O)[C@H]1CC[C@H]2[C@@H]3[C@H](O)C[C@@H]4C[C@H](O)CC[C@]4(C)[C@H]3CC[C@]12C [Chenodeoxycholic Acid],0%,
O=C(N[C@H](CO)[C@H](O)c1ccc([N+](=O)[O-])cc1)C(Cl)Cl [Chloramphenicol],0%,
NC(=NCCCCCCN=C(N)/N=C(\N)Nc1ccc(Cl)cc1)/N=C(\N)Nc1ccc(Cl)cc1 [Chlorhexidine?2HCl],,7.76%
NC(=NCCCCCCN=C(N)/N=C(\N)Nc1ccc(Cl)cc1)/N=C(\N)Nc1ccc(Cl)cc1 [Chlorhexidine],10%,
CC(=O)O[C@]1(C(C)=O)CC[C@H]2[C@@H]3C=C(Cl)C4=CC(=O)CC[C@]4(C)[C@H]3CC[C@@]21C [Chlormadinone acetate],0%,
CN1C(=O)CCS(=O)(=O)C1c1ccc(Cl)cc1 (centres unmarked) [Chlormezanone],20.4%,
Cc1cc(O)ccc1Cl [Chlorocresol],24.2%,
CCN(CC)CCOC(=O)c1ccc(N)cc1Cl [Chloroprocaine HCl],0%,
CCN(CC)CCCC(C)Nc1ccnc2cc(Cl)ccc12 (centres unmarked) [Chloroquine Phosphate],,4.168%
NS(=O)(=O)c1cc2c(cc1Cl)N=CNS2(=O)=O [Chlorothiazide],0%,
COc1ccc(C(Cl)=C(c2ccc(OC)cc2)c2ccc(OC)cc2)cc1 [Chlorotrianisene],0%,
Oc1c(Cl)cc(Cl)c2cccnc12 [Chloroxine],10.2%,
Cc1cc(O)cc(C)c1Cl [Chloroxylenol],0%,
CN(C)CCC(c1ccc(Cl)cc1)c1ccccn1 (centres unmarked) [Chlorpheniramine Maleate],6.37%,
CN(C)CCCN1c2ccccc2Sc2ccc(Cl)cc21 [Chlorpromazine HCl],0%,

SMILES,inhibition at 100 µM,%inhibition
CCCNC(=O)NS(=O)(=O)c1ccc(Cl)cc1 [Chlorpropamide],0%,
CN(C)CC/C=C1/c2ccccc2Sc2ccc(Cl)cc21 [Chlorprothixene hydrochloride],,0%
CN(C)CC/C=C1/c2ccccc2Sc2ccc(Cl)cc21 [Chlorprothixene],,13.67%
Cc1ccc2c(Cl)cc(Cl)c(O)c2n1 [Chlorquinaldol],1.48%,
CN(C)[C@@H]1C(O)=C(C(N)=O)C(=O)[C@@]2(O)C(O)=C3C(=O)c4c(O)ccc(Cl)c4[C@@](C)(O)[C@H]3C[C@@H]12 [Chlortetracycline HCl],1.82%,
NS(=O)(=O)c1cc(C2(O)NC(=O)c3ccccc32)ccc1Cl (centres unmarked) [Chlorthalidone],1.46%,
C[C@H](CCC(=O)O)[C@H]1CC[C@H]2[C@@H]3[C@H](O)C[C@@H]4C[C@H](O)CC[C@]4(C)[C@H]3C[C@H](O)[C@]12C [Cholic acid],0%,
C[N+](C)(C)CCO [Choline Chloride],0%,
O=C(O)C(O)C(O)C(=O)O (centres unmarked) [Choline bitartrate],0%,
O=C(O)c1cc(=O)c2ccccc2o1 [Chromocarb],21.6%,
CC(C)C(=O)OCC(=O)[C@@]12O[C@H](C3CCCCC3)O[C@@H]1C[C@H]1[C@@H]3CCC4=CC(=O)C=C[C@]4(C)[C@H]3[C@@H](O)C[C@@]12C [Ciclesonide],0%,
Cc1cc(C2CCCCC2)n(O)c(=O)c1 [Ciclopirox ethanolamine],,12.57%
Cc1cc(C2CCCCC2)n(O)c(=O)c1 [Ciclopirox],22.9%,
Nc1ccn(C[C@@H](CO)OCP(=O)(O)O)c(=O)n1 [Cidofovir],0%,
CC1(C)C[C@@H]1C(=O)N/C(=C\CCCCSC[C@H](N)C(=O)O)C(=O)O [Cilastatin],0%,
CC(C)[C@H]1C(=O)N[C@@H](CCCN=C(N)N)C(=O)NCC(=O)N[C@@H](CC(=O)O)C(=O)N[C@H](Cc2ccccc2)C(=O)N1C [Cilengitide?trifluoroacetate],10.8%,
COCCOC(=O)C1=C(C)NC(C)=C(C(=O)OC/C=C/c2ccccc2)C1c1cccc([N+](=O)[O-])c1 (centres unmarked) [Cilnidipine],0%,
COc1ccc([C@]2(C#N)CC[C@@H](C(=O)O)CC2)cc1OC1CCCC1 [Cilomilast],1.61%,
O=C1CCc2cc(OCCCCc3nnnn3C3CCCCC3)ccc2N1 [Cilostazol],7.33%,
CN/C(=N\CCSCc1nc[nH]c1C)NC#N [Cimetidine],20.9%,
C[C@@H](NCCCc1cccc(C(F)(F)F)c1)c1cccc2ccccc12 [Cinacalcet HCl],4.38%,
CCCCOc1cc(C(=O)NCCN(CC)CC)c2ccccc2n1 [Cinchocaine],0%,
O=C(O)c1cc(-c2ccccc2)nc2ccccc12 [Cinchophen],17.7%,
